# Assay results as given in US6589564B2, “Use of magnesium based products for the treatment of neoplastic diseases” (priority 1994, dated 2003).
# Read-outs that look alike come from different tables or passages of the source.
# How the values were obtained:
# [1] = tested on: infiltrating ulcerated adenocarcinoma (rectum)
# Description: The patient refused any therapy for a month and then started a magnesium treatment consisting of a daily administration of 500 cm^3 of physiologic solution, containing 6 g of magnesium pyrophosphate (i.e., 489 mg of Mg^++ daily, that is equivalent to about 9.7 mg of Mg^++/kg body weight daily). The infusion rate was adjusted to supply the patient with 80 mg of magnesium ions per hour for about 6 hours. Furthermore, a daily amount of 1200 mg of vitamin B6 was associated (vitamin B6:Mg^++=2.5:1), in four separate administrations.
# After one month of intravenous treatment, the therapy was continued orally, with 6 g of magnesium pyrophosphate daily (i.e., 488 mg of Mg^++ daily, corresponding to 9.7 mg of Mg^++/kg body weight daily), associated with […] of vitamin B6 in divided doses.
# rheumatoid arthritis = details: for ESR: before therapy 55, normal range 1-15
# Description: The magnesium therapy, that the patient started in a disease remission interval, consisted of daily administations of 6 g of magnesium pyrophosphate (equivalent to 489 mg of Mg^++, corresponding to 8.1 mg of Mg^++/kg body weight daily), by infusion in 500 cm^3 of physiologic solution. The infusion rate was adjusted to supply 80 mg of Mg^++ per hour for about 6 hours. Vitamin B6 was associated with magnesium in the 2.5:1 ratio, i.e. in an amount of 1200 mg daily in divided doses, in order to improve the magnesium uptake. Suitable analgesic and anti-inflammatory drugs (FANS) were prescribed to soothe the articulation pains
# At this point the parenteral treatment was suspended and an oral therapy started with following dosage: 6 g of magnesium pyrophosphate daily in divided doses (i.e., 488 mg of Mg^++ daily, corresponding to 8.1 mg of Mg^++/kg body weight daily), as well as […] of vitamin B6 orally, also in divided doses.
# pemphigus vulgaris = tested on: pemphigus vulgaris
# Description: A patient was affected since three years by a pemphigus vulgaris, that caused soft vesicles to form on the patient's face and scalp. The vesicles broke after forming, and gave rise to circular erosions, that later were covered by scabs. Then, the said lesions appeared also on the patient's trunk and oral mucosa.
# The therapy consisted in daily administering 9 g of magnesium pyrophosphate (i.e., 733 mg of Mg^++, corresponding to 9.16 mg/kg body weight daily of magnesium ions), dissolved into 500 cm^3 of a physiologic solution. The infusion rate was adjusted to supply 80 mg of Mg^++ per hour for about 9 hours.
# Moreover, 1800 mg of vitamin B6 were administered daily, in divided doses.
# ulcerative colitis = tested on: ulcerative colitis
# Description: The treatment comprised the parenteral administration of 6 g of magnesium pyrophosphate (489 mg of Mg^++, i.e., 8.89 mg of Mg^++/kg body weight daily), diluted into 500 cm^3 of physiologic solution, and the infusion was adjusted to supply the patient with 80 mg of Mg^++ per hour for 6 hours. […] of orally administered vitamin B6 were added in divided doses, to improve the magnesium uptake.
# [2] = end of fourth month, negative normally, before therapy positive
# [3] = after one further month (three months)
smiles,measurement,setting,value
O=P([O-])([O-])OP(=O)([O-])[O-].[Mg+2].[Mg+2] [magnesium pyrophosphate],tumor area at rectoscopy and tomography,[1]; end of fifth month of treatment,totally disappeared
same,tumor area,[1]; end of fourth month of therapy,further reduced
same,diameter of residual tumor area,"[1]; end of third month of magnesium therapy, point at 3 o'clock",1.5 cm
same,tumoral tissue at rectum investigation and rectoscopy,"[1]; end of third month, 6 g/day, 1 month i.v. then oral, with vitamin B6 1200 mg/day","had disappeared from the whole rectum circumference, except from a point at 3 o'clock"
same,ESR,"rheumatoid arthritis; end of first month, 6 g/day by infusion with vitamin B6",42
same,articulation pains and swelling,"rheumatoid arthritis; end of first month, 6 g/day by infusion with vitamin B6 and FANS","less pains at affected articulations, which appeared less swollen"
same,"articulation tumescence, pains, morning rigidity","rheumatoid arthritis; end of fourth month of treatment (1 month i.v., then oral 6 g/day)",any articulation tumescence had disappeared and the patient referred neither articulation pains nor morning articulation rigidity
same,ANA antibody research,rheumatoid arthritis; [2],negative
same,Waaler-Rose's reaction,rheumatoid arthritis; [2],negative
same,reactive C protein,"rheumatoid arthritis; end of fourth month, normal range 0-6, before therapy 15",2
same,rheuma test,"rheumatoid arthritis; end of fourth month, normal range 0-40, before therapy 105",21
same,ESR,rheumatoid arthritis; end of fourth month,10
same,fibrinogen,"rheumatoid arthritis; end of fourth month, normal range 123-370, before therapy 550",232
same,articular pains and cutaneous lesions,"pemphigus vulgaris; after one month, 9 g/day by infusion with vitamin B6",less articular pains and cutaneous lesions onto non-erythematous skin
same,scab lesions and articulation pains,"pemphigus vulgaris; end of fourth month (1 month i.v., then oral 9 g/day with vitamin B6)","the trunk and limb scab lesions had disappeared, while scarce lesions were still present on the scalp"
same,articulation pains and skin lesions,pemphigus vulgaris; end of sixth month of treatment,"the articulation pains had disappeared at all, as well as any skin lesions"
same,"colonscopy, last 50 cm of the colon mucosa",ulcerative colitis; [3],appeared normal
same,histology test of colon mucosa and submucosa,ulcerative colitis; [3],colon mucosa and submucosa were normal and any inflammatory infiltration had disappeared
same,abdominal pains and diarrhoea,"ulcerative colitis; after one further month (three months), same dosage",no more abdominal pains nor diarrhoea
same,"colonscopy, last 50 cm of the colon mucosa",ulcerative colitis; end of two month treatment,neither hyperaemic nor bleeding; and absence of microulcerative lesions
same,"diarrhoea, daily episodes",ulcerative colitis; end of two month treatment,two
same,histology test of colon mucosa,ulcerative colitis; end of two month treatment,still showed the presence of inflammatory neutrophil infiltration in the colon mucosa
same,abdominal pains,"ulcerative colitis; end of two month treatment, 6 g/day parenteral with oral vitamin B6",no abdominal pains
